Data: patent publication US12637473B2, “MDM2 protein degraders” (THE REGENTS OF THE UNIVERSITY OF MICHIGAN, priority 2016, dated 2026)
“Also recorded” adds a separate entry of the source.

Key:
Format in all cases: cell-based
[1] = tested on: RS4; 11 cells with stable shRNA knockdown of p53; assay: Cell growth inhibition by WST assay, p53 knockdown cells; set-up: LogIC50: unit not given here; settings: RS4;11 sh p53, 4 days; for IC50: Homo sapiens, 96 h
Description: (§1) RS4; 11 cells with stable shRNA knockdown of p53 or those transfected shRNA control vector were treated with Cpd. A, Cpd. B, Cpd. No. 14, Cpd. No. 21, Cpd. No. 15, and Cpd. No. 22 for 4 days, with a cell concentration of ˜15,000/well. Cell growth inhibition was determined by WST assay. See Table 7 (p53) and Table 8 (control). Significant increases in IC50 of the Compounds of the Disclosure in the p53 knockdown RS4; 11 cells were observed compared with that in the sh control cells. […] The p53 knockdown efficiency was determined by western blot for p53 protein levels with or without treatment of Cpd. A (1 μM) for 2 hours.

RS4; 11 cell line = assay: CellTiter-Glo Luminescent Cell Viability Assay, cell growth inhibition; settings: Homo sapiens, 96 h, 4 days
Method in brief: (§2)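 Cells plated at 2,000/well with serially diluted compounds, incubated 4 days at 37° C, 5% CO2. Viability read by CellTiter-Glo luminescence after 10-20 min at room temperature; IC50 from dose-response fit.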

MV4-11 cell line = assay: as above; settings: Homo sapiens, 96 h, 4 days
Method in brief: as §2

[2] = tested on: RS4; 11 cells transfected shRNA control vector; assay: Cell growth inhibition by WST assay, shRNA control cells; set-up: LogIC50: unit not given here; settings: RS4;11 sh Control, 4 days; for IC50: Homo sapiens, 96 h
Description: as §1

[3] = tested on: p53 target genes: p21, PUMA and BAX; assay: Activation of p53 downstream target genes, quantitative real-time PCR; settings: RS4, 11 cells; for activation of p53 downstream target genes (mRNA levels of p21, PUMA, BAX): 3, 6, or 12 hours
Description: RS4; 11 cells were treated with Cpd. A (0.3 μM), Cpd. No. 15 (10 nM), and Cpd. No. 22 (10 nM) for 3, 6, or 12 hours, and then harvested and washed. Cellular mRNA samples were extracted from the cells and then subjected to Reverse Transcription and quantitative real-time PCR for the analysis of the mRNA levels of three representative p53 target genes: p21, that induces cell cycle arrest, and PUMA and BAX that leads to apoptosis. […] A, Cpd. No. 15, and Cpd. No. 22.

RS4; 11 cells = assay: Cell growth inhibition by WST assay with Cpd. C co-treatment (CRBN competition); set-up: LogIC50: unit not given here; settings: for HillSlope / IC50 / LogIC50: 4 days; for shift of the dose response curves: co-treatment of Cpd. C (10, 20, or 30 μM)
Description: RS4; 11 cells were pre-incubated with different concentrations of Cpd. C to compete for the binding of phthalimide to CRBN, or DMSO, for 2 hours before adding Cpd. A, Cpd. No. 14, Cpd. No. 15, and Cpd. No. 22. The cells were then co-treated with 10, 20, or 30 μM Cpd. C and increasing concentrations of Cpd. A, Cpd. No. 14, Cpd. No. 15, and Cpd. No. 22 for 4 days, with a starting cell concentration of ˜15,000/well. Cell growth inhibition was determined by the WST assay. […] No. 14, Cpd. No. 15, and Cpd. No. 22 with co-treatment of Cpd. C. The structure of Cpd.

MDM2 [4] = target: T1, MDM2 (Homo sapiens, UniProt Q00987); assay: MDM2 degradation with or without proteasome inhibitor MG-132, western blotting; set-up: endogenous in cells; host or cells: RS4;11; settings: FIG. 6
T1 sequence (Q00987 whole entry): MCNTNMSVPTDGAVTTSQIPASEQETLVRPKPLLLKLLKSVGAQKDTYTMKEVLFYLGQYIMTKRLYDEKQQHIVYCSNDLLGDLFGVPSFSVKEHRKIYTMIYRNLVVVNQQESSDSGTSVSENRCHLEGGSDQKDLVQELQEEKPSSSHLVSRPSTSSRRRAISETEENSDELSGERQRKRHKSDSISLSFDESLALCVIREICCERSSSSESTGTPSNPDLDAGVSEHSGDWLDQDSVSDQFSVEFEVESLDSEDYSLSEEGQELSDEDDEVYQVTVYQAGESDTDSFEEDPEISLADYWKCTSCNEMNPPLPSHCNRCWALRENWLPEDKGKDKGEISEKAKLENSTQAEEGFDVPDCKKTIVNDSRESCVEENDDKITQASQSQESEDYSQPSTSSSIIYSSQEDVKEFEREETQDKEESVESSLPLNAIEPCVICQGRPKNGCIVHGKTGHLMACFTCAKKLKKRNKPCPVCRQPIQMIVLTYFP
Description: RS4; 11 cells were pre-incubated with the proteasome inhibitor MG-132 (20 μM) or without any pre-incubation for 2 hours. Next, the cells were treated with Cpd. A (0.3 μM), Cpd. No. 14 (0.03 μM), Cpd. No. 15 (0.01 μM), and Cpd. No. 22 (0.01 μM) for 2 hours, then harvested and lysed. The cell lysates were subject to western blotting analysis.

MDM2 [5] = target: T1, MDM2; assay: MDM2 degradation and p53 activation after pre-incubation with Cpd. C, Western blot; set-up: endogenous in cells; host or cells: RS4;11; settings: for MDM2 degradation, dependence on cereblon (CRBN): FIG. 7; for MDM2 degradation, competition by Cpd. C / p53 activation, competition by Cpd. C: RS4, 11 cells, pre-incubated with 30 μM Cpd. C for 2 hours
Description: RS4; 11 cells were pre-incubated with 30 μM Cpd. C to compete for the binding of phthalimide to CRBN, or DMSO, for 2 hours before adding Cpd. A, Cpd. No. 14, Cpd. No. 15, and Cpd. No. 22. In the Western blot RS4; 11 cells were then co-treated with the indicated compounds at the indicated concentrations after pre-incubation. […] No. 14, Cpd. No. 15, and Cpd.

MDM2 [6] = target: T1, MDM2; assay: MDM2 degradation and p53 activation, western blotting of cell lysates; set-up: endogenous in cells
Description: MV-4-11 cells were treated with Cpd. A, Cpd. B, Cpd. No. 15, and Cpd. No. 22 for 2 hours, then harvested and lysed. The cell lysates were subjected to western blotting analysis. […] No. 15 and Cpd. No. 22 as compared to Cpd. A, indicating MDM2 degradation.

MDM2 [7] = target: T1, MDM2; assay: as above; set-up: endogenous in cells; host or cells: RS4;11; settings: RS4
Description: RS4; 11 cells were treated with Cpd. A, Cpd. B, Cpd. No. 15, and Cpd. No. 22 for 2 hours, then harvested and lysed. The cell lysates were subjected to western blotting analysis. […] No. 15 and Cpd. No. 22 as compared to Cpd. A, indicating MDM2 degradation. The structure of Cpd.

[8] = Homo sapiens, 96 h, without Cpd. C

Row | SMILES | IC50 [1] [nM] | HiliSlope [1] | LogIC50 [1] | IC50 (RS4; 11 cell line) [nM] | IC50 (MV4-11 cell line) [nM] | IC50 [2] [nM] | HiliSlope [2] | LogIC50 [2] | HillSlope (RS4; 11 cells; + 10 uM Cpd. C) | IC50 (RS4; 11 cells; + 10 uM Cpd. C) [nM] | LogIC50 (RS4; 11 cells; + 10 uM Cpd. C) | HillSlope (RS4; 11 cells; + 20 uM Cpd. C) | IC50 (RS4; 11 cells; + 20 uM Cpd. C) [nM] | LogIC50 (RS4; 11 cells; + 20 uM Cpd. C) | HillSlope (RS4; 11 cells; + 30 uM Cpd. C) | IC50 (RS4; 11 cells; + 30 uM Cpd. C) [nM] | LogIC50 (RS4; 11 cells; + 30 uM Cpd. C) | HillSlope (RS4; 11 cells; without Cpd. C) | LogIC50 (RS4; 11 cells; without Cpd. C) | IC50 (RS4; 11 cells; [8]) [nM] | other results
1 | O=C(O)c1ccc(NC(=O)[C@@H]2NC3(CCCCC3)[C@@]3(C(=O)Nc4cc(Cl)ccc43)[C@H]2c2cccc(Cl)c2F)cc1 [Cpd. A, reference compound] | 9830 | −0.4240 | 0.9926 | 86 | 100 | 97.5 | −1.155 | −1.011 | −1.569 | 48.1 | −1.317 | −1.406 | 39 | −1.409 | −1.411 | 36.5 | −1.438 | −1.496 | −1.030 | 93.3 | activation of p53 downstream target genes (mRNA levels of p21, PUMA, BAX) ([3]; 0.3 μM): Significant activation
2 | O=C1CCC(N2C(=O)c3cccc(NCCOCCOCCNC(=O)c4ccc(NC(=O)[C@@H]5NC6(CCCCC6)[C@@]6(C(=O)Nc7cc(Cl)ccc76)[C@H]5c5cccc(Cl)c5F)cc4)c3C2=O)C(=O)N1 (stereo partly drawn) [Cpd. No. 14, (3′R,4'S,5′R)-6″-chloro-4′-(3-chloro-2-fluorophenyl)-N-(4-((2-(2-(2-((2-(2,6-dioxopiperidin-3-yl)-1,3-dioxoisoindolin-4-yl)amino)ethoxy)ethoxy)ethyl)carbamoyl)phenyl)-2″-oxodispiro[cyclohexane-1,2′-pyrrolidine-3′,3″-indoline]-5′-carboxamide] | 501 | −0.4731 | −0.3000 | 8.5 | 7.6 | 9.67 | −1.475 | −2.014 | −1.705 | 57 | −1.244 | −1.667 | 81.1 | −1.091 | −1.600 | 77.4 | −1.111 | −1.996 | −2.147 | 7.13 | MDM2 degradation, dependence on proteasome (MDM2 [4]): proteasome-dependent; MDM2 degradation, dependence on cereblon (CRBN) (MDM2 [5]): cereblon (CRBN)-dependent; MDM2 degradation, competition by Cpd. C (MDM2 [5]): significantly competed by Cpd. C; p53 activation, competition by Cpd. C (MDM2 [5]): significantly competed by Cpd. C; shift of the dose response curves (RS4; 11 cells): Significant rightward shifts
3 | O=C1CCC(N2C(=O)c3cccc(NCCOCCOCCOCCNC(=O)c4ccc(NC(=O)[C@@H]5NC6(CCCCC6)[C@@]6(C(=O)Nc7cc(Cl)ccc76)[C@H]5c5cccc(Cl)c5F)cc4)c3C2=O)C(=O)N1 (stereo partly drawn) [Cpd. No. 15, (3′R,4'S,5′R)-6″-chloro-4′-(3-chloro-2-fluorophenyl)-N-(4-((2-(2-(2-(2-((2-(2,6-dioxopiperidin-3-yl)-1,3-dioxoisoindolin-4-yl)amino)ethoxy)ethoxy)ethoxy)ethyl)carbamoyl)phenyl)-2″-oxodispiro[cyclohexane-1,2′-pyrrolidine-3′,3″-indoline]-5′-carboxamide] | 110 | −0.8905 | −0.9565 | 4.4 | 2 | 7.47 | −1.626 | −2.127 | −1.654 | 44 | −1.356 | −1.540 | 68.2 | −1.167 | −1.416 | 62.4 | −1.205 | −1.839 | −2.312 | 4.87 | p53 activation (MDM2 [6]; MV-4-11 cell line): p53 activation; protein level of MDM2 (MDM2 degradation) (MDM2 [6]; MV-4-11 cells, 2 hours, compared to Cpd. A): induce MDM2 degradation; also recorded: significantly decreased; MDM2 degradation, dependence on proteasome (MDM2 [4]): proteasome-dependent; MDM2 degradation, dependence on cereblon (CRBN) (MDM2 [5]): cereblon (CRBN)-dependent; MDM2 degradation, competition by Cpd. C (MDM2 [5]): significantly competed by Cpd. C; p53 activation, competition by Cpd. C (MDM2 [5]): significantly competed by Cpd. C; p53 activation (MDM2 [7]; 11 cell line): p53 activation; protein level of MDM2 (MDM2 degradation) (MDM2 [7]; 11 cells, 2 hours, compared to Cpd. A): induce MDM2 degradation; also recorded: significantly decreased; mRNA levels of p21 ([3]; FIG. 3, 10 nM): activate; mRNA levels of PUMA ([3]; FIG. 4, 10 nM): activate; mRNA levels of BAX ([3]; FIG. 5, 10 nM): activate; activation of p53 downstream target genes (mRNA levels of p21, PUMA, BAX) ([3]; 10 nM): Significant activation; shift of the dose response curves (RS4; 11 cells): Significant rightward shifts
